Measured values reported in US20070191406A1, “Heterocyclic antiviral compounds” (Roche Palo Alto LLC, priority 2006, published 2007).
Where a name gives a salt, the structure may show the parent alone.

Target: T1, CCR5 (Homo sapiens, UniProt P51681)
T1 construct: host or cells: CEM-NKr-CCR5-Luc
Assay: CCR5-Mediated CCF Assay
Format: cell-based
Settings: Hela-R5 cells (gp160 from R5-tropic virus, HIV-1 Tat) co-cultured 24 hrs with CEM-NKr-CCR5-Luc cells; luciferase readout
Procedure: CCF assay was performed as described before (C. Ji, J. Zhang, N. Cammack and S. Sankuratri, J. Biomol. Screen. 2006 11(6):652-663). Hela-R5 cells (express gp160 from R5-tropic virus and HIV-1 Tat) were plated in 384 well white culture plates (BD Bioscience, Palo Alto, Calif.) at 7.5×10^3 cells per well in phenol red-free Dulbecco's Modified Eagle Medium (DMEM) supplemented with 10% FBS, 1× Pen-Strep, 300 μg/mL G418, 100 μg/mL hygromycin, and 1 μg/mL Doxycycline (Dox) (BD Bioscience, Palo Alto, Calif.), using Multimek (Beckman, Fullerton, Calif.) and incubated at 37° C. overnight to induce the expression of gp160. Ten μL diluted compounds in medium containing 5% DMSO were added to the cells, followed by the addition of CEM-NKr-CCR5-Luc (obtained from NIH AIDS Research & Reference Reagents Program) that expresses CD4 and CCR5 and carries a HIV-2 long terminal repeat (LTR)-driven luciferase reporter gene at 1.5×10^4 cells/15 μL/well and incubated for 24 hrs. At the end of co-culture, 15 μL of Steady-Glo luciferase substrate was added into each well, and the cultures were sealed and gently shaken for 45 min. The luciferase activity were measured for 10 sec per well as luminescence by using 16-channel TopCount NXT (PerkinElmer, Shelton, Conn.) with 10 min dark adaptation and the readout is count per second (CPS). For the drug interaction experiments, small molecule compounds or antibodies were serially diluted in serum-free and phenol red-free RPMI containing 5% DMSO (CalBiochem, La Jolla, Calif.) and 1× Pen-Strep. Five μL each of the two diluted compound or mAb to be tested for drug-drug interactions were added to the Hela-R5 cells right before the addition of target cells.

T1 sequence (P51681 whole entry): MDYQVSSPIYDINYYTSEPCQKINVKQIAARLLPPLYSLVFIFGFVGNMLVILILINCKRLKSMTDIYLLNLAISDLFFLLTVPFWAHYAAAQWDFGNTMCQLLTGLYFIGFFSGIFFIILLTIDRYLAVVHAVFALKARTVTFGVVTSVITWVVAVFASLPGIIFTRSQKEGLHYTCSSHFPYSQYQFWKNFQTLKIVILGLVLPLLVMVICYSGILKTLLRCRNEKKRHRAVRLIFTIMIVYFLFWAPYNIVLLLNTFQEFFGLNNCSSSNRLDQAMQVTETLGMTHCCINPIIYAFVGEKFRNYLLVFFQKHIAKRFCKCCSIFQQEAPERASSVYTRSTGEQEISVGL

Compound	IC50 [nM]
Cc1ccc(N(CCCN2CC3CN(C(=O)c4c(C)cccc4C)CC3C2)C(=O)[C@@H]2CC[C@H](C(=O)O)C2)cc1Cl (stereo partly drawn) [I-4, (1S,3R)-3-((3-Chloro-4-methyl-phenyl)-{3-[5-(2,6-dimethyl-benzoyl)-hexahydro-pyrrolo[3,4-c]pyrrol-2-yl]-propyl}-carbamoyl)-cyclopentanecarboxylic acid, trifluoro-acetate salt]	9.8
Cc1ccnc(C)c1C(=O)N1CC2CN(CC[C@H](NC(=O)C3CCC(=O)C3)c3cccc(F)c3)CC2C1 (stereo partly drawn) [I-23, 3-Oxo-cyclopentanecarboxylic acid [(S)-3-[5-(2,4-dimethyl-pyridine-3-carbonyl)-hexahydro-pyrrolo[3,4-c]pyrrol-2-yl]-1-(3-fluoro-phenyl)-propyl]-amide]	7.4
Cc1ncnc(C)c1C(=O)N1CC2CN(CC[C@H](NC(=O)C3CCCC(=O)C3)c3cccc(F)c3)CC2C1 (stereo partly drawn) [I-24, 3-Oxo-cyclohexanecarboxylic acid [(S)-3-[5-(4,6-dimethyl-pyrimidine-5-carbonyl)-hexahydro-pyrrolo[3,4-c]pyrrol-2-yl]-1-(3-fluoro-phenyl)-propyl]-amide]	6.5
COC(=O)[C@H]1CC[C@@H](C(=O)N(CCCN2C[C@@H]3CN(C(=O)c4c(C)ncnc4C)C[C@@H]3C2)c2ccc(C)c(Cl)c2)CC1 [I-31]	3.5
Cc1cccc(C)c1C(=O)N1CC2CN(CC[C@H](NC(=O)C3CCCC3C(=O)O)c3ccccc3)CC2C1 (stereo partly drawn) [I-33, 2-{(S)-3-[5-(2,6-Dimethyl-benzoyl)-hexahydro-pyrrolo[3,4-c]pyrrol-2-yl]-1-phenyl-propylcarbamoyl}-cyclopentanecarboxylic acid]	1.7
